Results on six compounds are retold here after publication PMC12143348, “Rapid and reversible fluorescent probe enables repeated snapshot imaging of AMPA receptors during synaptic plasticity” (Science Advances, 2025).

“Also recorded” adds a separate entry of the source.

Experiment [1] relates to cultured hippocampal neurons. Kind of experiment: cLTP stimulation and quantification of cell-surface AMPARs in spines of cultured hippocampal neurons. The format is cell-based, mouse. As to conditions: [AP5] = 50 µM, [MK-801] = 20 µM, [KN93] = 5 µM, [BFA] = 25 µM; 200 µM glycine 15 min. As to the method: After washing the cells with Hepes-based ACSF, 100 nM PFQX1(AF488) was added to the dish. The cells were scanned to obtain “basal state” images. Then, the cells were washed three times with cLTP stimulation buffer (Hepes-based ACSF except for MgCl2 supplemented with 20 μM bicuculline and 1 μM strychnine) to remove PFQX1(AF488). cLTP was induced by 200 μM glycine in cLTP stimulation buffer for 15 min at room temperature. After washing the cells with cLTP incubation buffer (Hepes-based ACSF supplemented with 20 μM bicuculline and 1 μM strychnine), the cells were incubated for 60 min at room temperature. Last, 100 nM PFQX1(AF488) was added to the dish, and images were scanned to obtain “after cLTP” images. Inhibitors (50 μM AP5 and 20 μM MK-801 for NMDARs and 5 μM KN93 for CaMKII and 25 μM […] for exocytosis) were added to cLTP stimulation buffer and cLTP incubation buffer. To quantify the fluorescence intensity in spines, the average signal intensity of ROIs set on dendritic spines or dendritic shafts was calculated by ZEN blue software after subtracting background fluorescence. The fold change value was calculated using the following equation: (fluorescence intensity of “after cLTP” images)/(fluorescence intensity of “basal state” images).
To label endogenous AMPARs, 10 μM CAM2(TCO) in the culture medium was gently added to the hippocampal neurons on a glass-bottom dish to a final concentration of 2 μM CAM2(TCO). The cells were incubated for 2 hours at 37°C. In the second step, the culture medium was removed, and the cells were treated with 100 nM Tz(ST647) for 5 min in Hepes-based ACSF at room temperature. To quench excess Tz(ST647), 1 μM TCO-OH in Hepes-based ACSF was added. Then, the cells were treated with 100 nM PFQX1(AF488). Imaging was performed with confocal microscopy.

Another experiment relates to native AMPARs. Put plainly: Concentration-dependent binding of PFQX1(AF488) to AMPARs in primary cultured hippocampal neurons. Details: species or system mouse. The settings on record: 10 µM NBQX added after 100 nM PFQX1(AF488); cultured hippocampal neurons. The procedure:
We modified the Banker’s culture method of hippocampal neurons ([59]). Glass-bottom dishes (14 mm φ, Matsunami) were coated with poly-D-lysine (Sigma-Aldrich) and washed three times with sterile dH2O. Hippocampi from 16-day-old ICR mouse embryos were aseptically dissected and digested with 0.25% (w/v) trypsin (Nacalai Tesque) for 20 min at 37°C. The cells were resuspended in Neurobasal Plus medium supplemented with 10% FBS, 1 mM GlutaMAX I (Invitrogen), penicillin (100 U/ml), and streptomycin (100 μg/ml) and filtered by Cell Strainer (100 μm, Falcon) followed by centrifugation at 1000 rpm for 5 min. The cells were resuspended in Neurobasal Plus medium supplemented with 2% of B-27 Plus Supplement, 1 mM GlutaMAX I (Invitrogen), penicillin (100 U/ml), and streptomycin (100 μg/ml) and plated at a density of 2 × 10^4 cells on glass-bottom dishes. Precultured cortical astrocytes on glass coverslips (13 mm φ) were transferred to the dishes so that astrocytes were faced to neurons. The cultures were maintained at 37°C in a 95% air and 5% CO2 humidified incubator. The culture medium was replaced every 7 days, and the neurons were used at 16 to 18 days in vitro (DIV).
Calcein Red AM (50 nM; AAT Bioquest) was added to the cultured neurons for 30 min at 37°C to visualize the intracellular region. The cells were washed with Hepes-based ACSF [25 mM Hepes (pH 7.4), 140 mM NaCl, 5 mM KCl, 1.3 mM CaCl2, 2 mM MgCl2, and 33 mM glucose], and 100 nM PFQX1(AF488) in Hepes-based ACSF was added to the dish.
For evaluating the concentration dependency of PFQX1(AF488), the cells were treated with 1 nM PFQX1(AF488). Then, PFQX1(AF488) in Hepes-based ACSF was added stepwise to the dish to a final concentration of 3, 10, 30, 100, 300, and 1000 nM. To quantify the concentration dependency after cLTP, the procedure described above was conducted after cLTP stimulation as described in the section “cLTP and quantification of cell-surface AMPARs.” The average intensity of ROIs set on spines was calculated by ZEN blue software after subtracting background fluorescence. The intensity was fitted with KaleidaGraph to calculate the equilibrium constant value using the following equation: a + (b − a)/(1 + (x/c)^d). The equilibrium constant is regarded as the Kd in this study.

Experiment [2] concerns AMPARs. Put plainly: Staining of AMPARs in acute cerebellar slices. The format is binding, mouse. The settings on record: 10 µM NBQX with 30 nM PFQX1(AF488), 5 min; molecular layer. The procedure: following secondary antibodies were used: donkey anti-mouse CF568 conjugated (Sigma, […]
1:1,000) and anti-rabbit Alexa Fluor Plus 488 conjugated (Invitrogen, A32731, 1,000).
Imaging was performed with confocal microscopy.
With two-step labeling, the cells were labeled as described in “Two -step labeling and PFQX1(AF488)staining in cultured neurons,” followed by immunostaining.
In fig. S9A, the cells were incubated with 500 nM CellTracker Red CMPTX (Invitrogen) instead of Calcein Red AM for 30 min at 37 °C to visualize the intracellular region before the immunostaining.
Preparation and staining of cerebellar acute brain slices
C57BL/6J mice (3 weeks) were anesthetized with isoflurane, and their brains were isolated and immediately transferred to ice-cold cutting solution buffer (120 mM Choline Chloride, 3 mM KCl, 8 mM MgCl2, 1.25 mM NaH2PO4, 28 mM NaHCO3, 22 mM Glucose, and 0.5 mM Sodium ascorbate) gassed with 5% CO2 and 95% O2 and incubated for 5 min. Sagittal cerebellar slices were cut with a microslicer (Neo-linear slicer NLS-MT; DOSAKA EM) in cutting solution buffer and then incubated in ACSF […]
NaHCO3, 10 mM Glucose) gassed with 5% CO 2 and 95% O 2 at 37 °C.
Acute slices were transferred to glass bottom dishes and treated with 30 nM PFQX1(AF488) in HEPES-based ACSF for 5 min. […]
Scale bars, 500 µm. (F) Quantification of probe intensity in Ε. […]

For a further experiment, the system named is GluA1–4. Put plainly: Fluorescence Ca2+ assay, inhibition of glutamate-induced response in HEK293T cells transfected with GluA1-4. As to conditions: 30 µM glutamate-induced Ca2+ response; GluA1–4 in HEK293T cells. The format is cell-based, mouse. As to the method: HEK293T cells transfected with Ca2+-permeable GluA1–4 (GluA1 flip(Q), GluA2flip(Q), GluA3flip(Q) (Y454A/R461G), and GluA4flip(Q)) or GluK2(Q) were seeded on the 96 well plate. The cells were loaded with 5 µM Cal-520 AM (AAT Bioquest) in the culture medium for 2 h and washed with HBS using AquaMax 2000 (Molecular devices). The imaging experiment was carried out in an HBS buffer. For the fluorescence Ca2+ imaging, PFQX-amine was pretreated to the cells for 3 min followed by the addition of 30 µM glutamate with 100 µM cyclothiazide as a desensitization inhibitor for AMPARs and 100 µM kainic acid with 100 µM BPAM344 as a desensitization inhibitor for kainate receptors.
Fluorescent intensity of Cal-520 was obtained using FlexStation3 (Molecular devices), and analyzed with SoftMax Pro 7 (Molecular devices). ΔRFU was defined as the difference between the maximum intensity value after adding glutamate and the average intensity value before adding the glutamate. ΔRFU was fitted with KaleidaGraph.
Immunostaining of cultured neurons
The cultured hippocampal neurons were fixed with cold methanol for 5 min and washed with PBS three times. Fixed cells were incubated with Blocking One Histo (Nacalai Tesque) for 10 min. The cells were washed with PBS containing 0.05% Tween 20 (PBS-T) once and incubated with primary antibodies in PBS-T containing 5% Blocking One Histo at room temperature for 2 h. […]

The target in experiment [3] is AMPARs. Details: method as in earlier work. The settings on record: read-out: inhibition constant (Ki) for AMPARs; cited from earlier work.
Experiment [4] deals with Halo-tag-fused GluA2 in HEK293T cells. Put plainly: Exocytosis assay of AMPARs in HEK293T cells (Halo-tag pulse labeling). The class given is cell-based. The settings on record: 25 µM, 2 h at 37 °C. The procedure: Exocytosis assay of AMPARs in HEK293T cells
HEK293T cells expressing Halo-tag-GluA2 flip(Q)-3’UTR were treated with Halo-tag ligand-Alexa488 (HTL(AF488)) for 30 min at room temperature as a first pulse. After washing with DMEM three times, the cells were incubated with 25 µM brefeldin A or DMSO for 2 h at 37 °C in a 95% air and 5% CO2 humidified incubator. Then, HTL(AF647) was added to the dishes and incubated for 15 min at room temperature as a second pulse to visualize spontaneous exocytosed AMPARs. Labeled cells were fixed with 4% PFA for 15 min. The fluorescent images were obtained using confocal […]
General materials and methods for organic synthesis
All chemical reagents and solvents were purchased from commercial sources (FUJIFILM Wako pure chemical, TCI chemical, Sigma-Aldrich, Click Chemistry Tools, BroadPharm) and were used without further purification. Thin-layer chromatography (TLC) was performed on silica gel 60 F254 precoated aluminum sheets (Merck).
Chromatographic purification was performed by flash column chromatography on silica gel 60 N (neutral, 40–50 µm, Kanto Chemical). 1H-NMR spectra were recorded in deuterated solvents on an Avance III HD 300 MHz or 500 MHz (Bruker). […] High-resolution mass spectra were measured on a Compact (Bruker) equipped with electron spray ionization (ESI). […]

Regarding `NC(CCCP(=O)(O)O)C(=O)O` (stereo not drawn) [AP5], the “effect on the increase in PFQX1(AF488) fluorescence in spines after cLTP stimulation” value (shortened to “effect on the increase”) in experiment [1] is “suppressed the increase in PFQX1(AF488) fluorescence; also recorded: increase in both PFQX1(AF488) and ST647 fluorescence was not observed”. For `COc1ccc(S(=O)(=O)N(CCO)c2ccccc2CN(C)C/C=C/c2ccc(Cl)cc2)cc1` [KN93], the “effect on the increase” value in experiment [1] is recorded as “suppressed the increase in PFQX1(AF488) fluorescence”. Consider `C[C@]12N[C@H](Cc3ccccc31)c1ccccc12` [MK-801], for which the “effect on the increase” value in experiment [1] is given as “suppressed the increase in PFQX1(AF488) fluorescence”. Regarding `NS(=O)(=O)c1cccc2c1c([N+](=O)[O-])cc1[nH]c(=O)c(=O)[nH]c12` [NBQX, 2,3-dioxo-6-nitro-1,2,3,4-tetrahydrobenzo(f)quinoxaline-7-sulfonamide, reference compound], in the experiment with native AMPARs, the “competitive inhibition of PFQX1(AF488) binding in neurons” value is “fluorescent signals from the puncta disappeared”. For the same compound, the “competitive inhibition of PFQX1(AF488) binding in cerebellar slices” value in the experiment on AMPARs [2] is recorded as “significantly weakened”. On to `O=c1[nH]c2cc(-n3cccc3)c(C(F)(F)F)cc2[nH]c1=O` [PFQX, 6-pyrrolyl-7-trifluoromethyl-quinoxaline-2,3-dione], for which the “antagonism of AMPAR subunits” value in the experiment with GluA1–4 is “antagonized AMPARs in a subunit-nonspecific manner”. Also, the Ki (commonly the dissociation constant of the complex between target and ligand, obtained from inhibition or displacement) on AMPARs [3] is 0.17 µM. On to `C[C@H]1CCC/C=C/[C@@H]2C[C@H](O)C[C@H]2[C@H](O)/C=C/C(=O)O1` [brefeldin A], for which the “effect on the increase” value in experiment [1] is on record as “inhibited the fluorescent increase in PFQX1(AF488)”. In addition, in experiment [4], the “effect on spontaneous exocytosis of Halo-tag-fused AMPAR to the cell surface” value is reported as “markedly suppressed the spontaneous exocytosis”.
